These results are taken from ChEMBL document CHEMBL3132790 (Medchemcomm, 2013).

Assay [1] concerns the target Histamine H4 receptor (Homo sapiens, UniProt Q9H3N8). Description: Displacement of [3H]histamine from wild type human histamine H4 receptor transfected in HEK293T cells after 1.5 hrs by liquid scintillation counting analysis. The assay is classed as cell-based, HEK-293T.
The target of assay [2] is Histamine H4 receptor (Homo sapiens, UniProt Q9H3N8, E182Q). Description: Displacement of [3H]-JNJ 7777120 from human histamine H4 receptor E182'5.46Q mutant transfected in HEK293T cells after 1.5 hrs by liquid scintillation counting analysis.
Histamine H4 receptor (Homo sapiens, UniProt Q9H3N8, E182Q), sequence (Q9H3N8 whole entry E182Q): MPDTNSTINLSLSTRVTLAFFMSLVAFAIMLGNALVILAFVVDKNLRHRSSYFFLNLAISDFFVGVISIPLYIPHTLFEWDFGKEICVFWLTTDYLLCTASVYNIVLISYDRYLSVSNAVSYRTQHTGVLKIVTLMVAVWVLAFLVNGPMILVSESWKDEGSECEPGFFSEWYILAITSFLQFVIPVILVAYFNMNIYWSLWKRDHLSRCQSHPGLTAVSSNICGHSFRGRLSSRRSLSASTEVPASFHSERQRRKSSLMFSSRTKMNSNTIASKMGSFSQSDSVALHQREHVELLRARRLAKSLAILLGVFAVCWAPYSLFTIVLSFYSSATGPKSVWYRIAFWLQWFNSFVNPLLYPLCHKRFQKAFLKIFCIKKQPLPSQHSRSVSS
Assay [3] concerns the target Histamine H4 receptor (Homo sapiens, UniProt Q9H3N8, L175V). The assay can be described thus: Displacement of [3H]histamine from human histamine H4 receptor L175'5.39V mutant transfected in HEK293T cells after 1.5 hrs by liquid scintillation counting analysis. The assay is classed as cell-based, HEK-293T. A general note: Loss of bound radioactivity is the signal in a displacement assay; it reports binding, not function.

The term Ki denotes the dissociation constant of the complex between target and ligand, obtained from inhibition or displacement.

Histamine H4 receptor (Homo sapiens, UniProt Q9H3N8), sequence (Q9H3N8 whole entry): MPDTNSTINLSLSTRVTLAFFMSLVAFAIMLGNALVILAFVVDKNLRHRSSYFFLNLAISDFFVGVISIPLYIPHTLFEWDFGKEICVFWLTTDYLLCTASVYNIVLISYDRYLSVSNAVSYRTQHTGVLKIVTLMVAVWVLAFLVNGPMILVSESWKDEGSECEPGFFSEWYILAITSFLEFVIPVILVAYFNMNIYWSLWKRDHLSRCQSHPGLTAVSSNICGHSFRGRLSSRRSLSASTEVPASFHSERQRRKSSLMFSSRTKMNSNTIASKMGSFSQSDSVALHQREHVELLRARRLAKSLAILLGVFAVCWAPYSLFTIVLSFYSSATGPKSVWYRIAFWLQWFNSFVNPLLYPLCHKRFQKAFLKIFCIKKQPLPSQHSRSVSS
Histamine H4 receptor (Homo sapiens, UniProt Q9H3N8, L175V), sequence (Q9H3N8 whole entry L175V): as the sequence (Q9H3N8 whole entry E182Q) above, with L175V, Q182E counted along it

The molecule `CN1CCN(C(=O)c2cc3cc([N+](=O)[O-])ccc3[nH]2)CC1` showed a Ki at Histamine H4 receptor [1] of 100 nM.
Turning to `CN1CCN(c2cc(-c3ccc(Cl)cc3)nc(N)n2)CC1`, the Ki was 200 nM on Histamine H4 receptor [2], 63.1 nM on Histamine H4 receptor [3] and 2 nM on Histamine H4 receptor [1].
Take `COc1ccc(-c2cc(N3CCN(C)CC3)nc(N)n2)cc1`: the affinity on Histamine H4 receptor [1] corresponds to a Ki of 15.8 nM.
Still for that read-out and setting: in the case of `COc1ccc2[nH]c(C(=O)N3CCN(C)CC3)cc2c1` it was 5010 nM; in that of `CN1CCN(c2cc(-c3ccc(N)cc3)nc(N)n2)CC1`, 5.01 nM.
Take `CN1CCN(c2cc(-c3ccccc3)nc(N)n2)CC1`: the inhibition constant (Ki) on Histamine H4 receptor [2] was 63.1 nM; at Histamine H4 receptor [3] it was 20 nM.
For the molecule `CN1CCN(c2cc(-c3ccc([N+](=O)[O-])cc3)nc(N)n2)CC1`, affinity on Histamine H4 receptor [1] was put at a Ki of 7.94 nM.
